Among the data in the OPERA property sets (Mansouri et al. 2018) are logP and solubility values, retold here.

Values after ≈ are worked out from the molar mass of the structure shown.

Conditions in one series: not given
As a reminder, the logP is the decadic logarithm of the partition coefficient of the neutral form, usually between octanol and water. Regarding `CCOP(=S)(OCC)SCS(=O)(=O)CC`, the logP was determined as 1.99.

Still in this series, the particulars now being: 20 °C.
For orientation: solubility means the concentration that dissolves in the medium under given conditions. High values mean a readily soluble substance, low ones a poorly soluble substance. `CCOP(=S)(OCC)SCCS(=O)(=O)CC` displayed a solubility of 2880 µM (≈ 883 µg/mL).
Still for that read-out and setting: to `CCOP(=O)(OCC)Oc1ccc([N+](=O)[O-])cc1` belongs 8720 µM (≈ 2400 µg/mL); to `CCOP(=S)(OCC)SCCSCC`, 59.4 µM (≈ 16.3 µg/mL).
Take `CCOP(=S)(OCC)SCS(=O)C(C)(C)C` (stereo not given): the solubility turned out to be 3610 µM (≈ 1100 µg/mL).
`CCOP(=S)(OCC)Oc1ccc(S(C)(=O)=O)cc1`: the solubility worked out at 2300 µM (≈ 746 µg/mL).
Compound `COP(=S)(OC)Oc1cc(Cl)c(Br)cc1Cl` returned a solubility of 0.82 µM (≈ 0.3 µg/mL).
As to `CCOP(=S)(OCC)SCS(=O)CC` (stereo not given), the solubility worked out at 28900 µM (≈ 8000 µg/mL).
In turn, `CCOP(=S)(OCC)SCS(=O)(=O)CC` displayed a solubility of 2950 µM (≈ 861 µg/mL).

The series is the same for the next values; noted with them: 25 °C.
`CNC(=O)ON=CC(C)(C)SC` showed a solubility of 31700 µM (≈ 6030 µg/mL). This counts as millimolar.
